Measured values from patent US8415156B2, “Recombinant laminin-521” (Biolamina AB, priority 2010, dated 2013).

Tests used:
Type in all cases: cell-based, human
hES cells = assay: Cell survival assay, 24 hours (Example 2)
Protocol: Tissue cell culture plates were coated overnight at 4° C. with sterile solutions of the ECM proteins, such as human recombinant LN-521, all at a concentration of 30 μg/ml (5 μg/cm^2). Control plates were coated with Matrigel according to the STEMCELL Technologies' instructions. Prior to use, dishes were pre-warmed in an incubator for one hour after which prewarmed O3 medium was added without additional washing of the dish. After applying a fresh LN-521 solution to a new dish, the remaining LN-521 solution could be used at least once more. All the adhesion, survival, and inhibition of survival experiments were carried out using fresh coating materials.
Briefly, 96-well plates were coated by extracellular matrix proteins as described above and blocked by O3 medium containing bovine serum albumin. The ES cells were plated at cell density of 50,000 cells/cm^2 onto extracellular matrix-coated plates and left to adhere for 1 hour in a cell incubator. After that the plates were washed 3 times with the medium to remove the non-adherent cells, and then the adherent cells were fixed for 20 minutes by 5% glutaraldehyde, stained by 0.1% Crystal Violet. (Kebo Lab, Spanga, Sweden, www.kebolab.se). After one hour and 3 washes with water, Crystal Violet was extracted with 10% acetic acid and quantified by measuring optical density at 570 nm. All the experiments were performed in quadruplicate.
The survival assay was performed as described for the cell adhesion assay above, except that the cells were left in the cell incubator for 24 hours. For inhibition of survival assay, the cells were kept in a medium with function blocking antibodies at the concentrations recommended by the manufacturer or pathway inhibitors at concentrations indicated in the text for 30 minutes, and then plated on the coated dishes. All the experiments were performed in quadruplicate.
Pluripotent hES cells express α1, α5, β1, β2 and γ1 laminin chains. To compare the adhesion and clonal survival of hES cells plated from single cell suspension to different coating substrata, hES cells growing as monolayers on LN-511 or as clusters on a feeder layer were trypsinized into single cell suspension in O3 medium and plated on cell culture dishes coated with Matrigel, LN-111, LN-511, LN-521 or a mixture of LN-511 and LN-521, in the absence or presence of a ROCK inhibitor (Y-27632) and analyzed after 24 hours.

HS181, HS401, H1 cells = assay: Long-term self-renewal of hES cells on LN-521 (Example 2)
Protocol: Human ES cells of HS181 and HS401 were cultured on LN-521-coated culture dishes in O3 medium (described in Rodin et al., Nature Biotechnol., vol. 28, pp. 611-615 (2010) with pH was adjusted to 7.35), mTeSR1 (STEMCELL Technologies) and chemically defined and xeno-free TeSR2 (STEMCELL Technologies) at 37° C., 5% CO2. Initially, cells of the lines were transferred onto a LN-521 coating from a human feeder cell layer by careful scratching using a sterile knife with subsequent trypsinization, or the cells were trypsinized into single cell suspension from a LN-511 coating. The cells were provided once a day with fresh medium pre-warmed in an incubator for one hour, except for the first day after plating, when only a few drops of fresh medium were added. Cells were routinely passed once in 10-12 days by exposure to Trypsin/EDTA (GIBCO Invitrogen Corporation, Paisley, Scotland) for 5 minutes at 37° C., 5% CO2. They were then gently pipetted to break into single-cell suspension and a Defined Trypsin Inhibitor (GIBCO Invitrogen) was added. The cell suspension was centrifuged at 25 rcf for 4 minutes, the supernatant was discarded, the cell pellet was resuspended in prewarmed O3 medium, and the cells were then passed through a 40 μm sieve. Subsequently, the cells were plated on new LN-521-coated dishes at a concentration of 30,000 cells/cm^2 in 1:25-1:30 split ratios. Control cells of the same line were cultured on Matrigel (STEMCELL Technologies) and LN-511 in O3 medium as described previously.^9
For defined and xeno-free cultures, TeSR2 (STEMCELL Technologies) medium and defined free from any animal derived component TrypLE™ Select (GIBCO Invitrogen Corporation, Paisley, Scotland) enzyme were used. The cells were passed every 10-14 days by exposure to TrypLE™ Select for 4-5 minutes at 37° C., 5% CO2. Then, the enzyme was carefully aspirated and prewarmed TeSR2 medium was added. After that, the cells were gently pipetted to break into single-cell suspension, centrifuged, the supernatant was discarded, and the cell pellet was resuspended in prewarmed TeSR2. The cells were then passed through a 40 μm sieve and plated on a fresh LN-521 coated dish.

myosin light chain (MLC) = assay: Western blot of phosphorylated myosin light chain; details: one and six hours after plating
Protocol: HS181 cells were trypsinized into single cell suspension as described above. For inhibition experiments, the cells were kept in O3 medium with blocking antibodies or pathway inhibitors for 30 minutes and then 450K cells were plated on 35 mm dishes precoated with the appropriate matrix coating. For other experiments, same number of cells was plated directly after trypsinization. […] After two washings in ice-cold PBS, the plates with cells were snap frozen in liquid nitrogen and stored at −80° C. To prepare samples for western blots and ELISA, the plates were slowly thawed and kept on ice with 100-150 μl of lysis buffer (50 mM Tris-HCl, pH7.5, 150 mM NaCl, 0.5% deoxycholate, 0.5% SDS, 1% Triton X-100, 1% Igepal, Complete™ (Roche) and Phospho-Stop™ (Roche)) on top. Then, the cells were scraped, pipetted and sheared through a 27G ¾″ needle. After that, the cell pellets were clarified by centrifugation at 16,100 rcf for 15 minutes at 4° C. For western blots, 4-12% gradient gels were used for SDS electrophoresis and the proteins were transferred to PVDF membranes. The membrane was hybridized with the antibody of interest according to the manufacturer's instructions. Chemoluminescent HRP-substrate from Amersham Biosciences was used for visualization. For the densitometry analysis the films were scanned at 2,400 dpi and analyzed by the Chemilmager5500 program (1D-Multi Line densitometry mode). […]

LN-521: protein formed by joining α5, β2 and γ1 chains together; human recombinant, produced in HEK293 cells
survival of Y-27632 treated human ES cells on LN-521 compared with Matrigel (hES cells; 10 μM of Y-27632, 40,000 cells per 1 cm^2): survived better
survival on LN-521 compared with LN-511 (hES cells; 24 hours, absence of ROCK inhibitor): significantly higher
cell shape of cells growing on LN-521 24 hours after plating (hES cells; LN-521 row: absence of ROCK inhibitor, Y-27632 row: presence of ROCK inhibitor): round
survival relative to Matrigel, exogenous bFGF removed (hES cells; O3 medium without exogenous bFGF): 20 times
survival of hES cells plated from single cell suspension after 24 hours (hES cells; O3 medium, absence of ROCK inhibitor): did so as single cells
survival 24 hours after plating in medium lacking all growth factors of the TeSR1 formulation (hES cells; no bFGF, LiCl, GABA, pipecolic acid and TGFβ): survived
passages of proliferation, HS401 cells (HS181, HS401, H1 cells; O3 medium, 2 months): ≥ 5 passages
passages of proliferation, H1 cells (HS181, HS401, H1 cells; O3 medium, 6 months): ≥ 15 passages
passages of proliferation, HS181 cells (HS181, HS401, H1 cells; O3 medium, 9 months): at least 24 passages
passages cultured, HS401 cells (HS181, HS401, H1 cells; TeSR2, TrypLE Select, xeno-free, 1.5 months): 4 passages
passages cultured, H1 cells (HS181, HS401, H1 cells; TeSR2, TrypLE Select, xeno-free, 5 months): 12 passages
plating efficacy after a passage in TeSR2 compared with O3 or mTeSR1 media (HS181, HS401, H1 cells; TeSR2 medium and TrypLE Select): slightly lower
phosphorylation of MLC compared with cells on Matrigel and LN-111 (myosin light chain (MLC)): even higher
